Measurements reported in PubChem BioAssay (NCI).
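Results reflect a 48-hour exposure of cells in 96-well plates to compound at five concentrations. TGI denotes the concentration required for complete inhibition of growth.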

Legend:
Assay in all cases: growth of human tumour cells (NCI), 48 h
A549 NSCLC = system: A549 NSCLC
UACC-62 melanoma = system: UACC-62 melanoma
TK-10 renal = system: TK-10 renal
SF-539 CNS = system: SF-539 CNS
PC-3 prostate = system: PC-3 prostate
HS 578T breast = system: HS 578T breast
U251 CNS = system: U251 CNS
NCI-H226 lung = system: NCI-H226 lung
MDA-MB-231 breast = system: MDA-MB-231 breast
ACHN renal = system: ACHN renal
COLO 205 colon = system: COLO 205 colon
SN12C renal = system: SN12C renal
CAKI-1 renal = system: CAKI-1 renal
HCC-2998 colon = system: HCC-2998 colon
HCT-15 colon = system: HCT-15 colon
MALME-3M melanoma = system: MALME-3M melanoma
SR leukemia = system: SR leukemia
T-47D breast = system: T-47D breast
NCI-H460 lung = system: NCI-H460 lung
SNB-19 CNS = system: SNB-19 CNS
NCI/ADR-RES ovarian = system: NCI/ADR-RES ovarian
OVCAR-5 ovarian = system: OVCAR-5 ovarian
MOLT-4 leukemia = system: MOLT-4 leukemia
SK-MEL-2 melanoma = system: SK-MEL-2 melanoma
SNB-75 CNS = system: SNB-75 CNS
NCI-H23 lung = system: NCI-H23 lung
KM12 colon = system: KM12 colon
M14 melanoma = system: M14 melanoma
OVCAR-4 ovarian = system: OVCAR-4 ovarian
MDA-MB-435 = system: MDA-MB-435
OVCAR-8 ovarian = system: OVCAR-8 ovarian
NCI-H522 lung = system: NCI-H522 lung
MCF7 breast = system: MCF7 breast
786-0 renal = system: 786-0 renal
HT29 colon = system: HT29 colon
SK-MEL-5 melanoma = system: SK-MEL-5 melanoma
K-562 leukemia = system: K-562 leukemia
SW-620 colon = system: SW-620 colon
RXF 393 renal = system: RXF 393 renal
UO-31 renal = system: UO-31 renal
HOP-92 NSCLC = system: HOP-92 NSCLC
UACC-257 melanoma = system: UACC-257 melanoma
OVCAR-3 ovarian = system: OVCAR-3 ovarian
MDA-N = system: MDA-N
SK-MEL-28 melanoma = system: SK-MEL-28 melanoma
SF-295 CNS = system: SF-295 CNS
SF-268 CNS = system: SF-268 CNS
IGROV1 ovarian = system: IGROV1 ovarian
A498 renal = system: A498 renal
HCT-116 colon = system: HCT-116 colon
BT-549 breast = system: BT-549 breast
SK-OV-3 ovarian = system: SK-OV-3 ovarian
DU-145 prostate = system: DU-145 prostate
HOP-62 NSCLC = system: HOP-62 NSCLC
EKVX NSCLC = system: EKVX NSCLC
CCRF-CEM leukemia = system: CCRF-CEM leukemia
RPMI-8226 leukemia = system: RPMI-8226 leukemia
LOX IMVI melanoma = system: LOX IMVI melanoma

Compound: CC(C)C(=O)NCC[C@@H](CNC(=O)OC(C)(C)C)NC(=O)OC(C)(C)C
- TGI (A549 NSCLC): > 100 µM
- TGI (UACC-62 melanoma): > 100 µM
- TGI (TK-10 renal): > 100 µM
- TGI (SF-539 CNS): > 100 µM
- TGI (PC-3 prostate): > 100 µM
- TGI (HS 578T breast): > 100 µM
- TGI (U251 CNS): > 100 µM
- TGI (NCI-H226 lung): > 100 µM
- TGI (MDA-MB-231 breast): > 100 µM
- TGI (ACHN renal): > 100 µM
- TGI (COLO 205 colon): > 100 µM
- TGI (SN12C renal): > 100 µM
- TGI (CAKI-1 renal): > 100 µM
- TGI (HCC-2998 colon): > 100 µM
- TGI (HCT-15 colon): > 100 µM
- TGI (MALME-3M melanoma): > 100 µM
- TGI (SR leukemia): > 100 µM
- TGI (T-47D breast): > 100 µM
- TGI (NCI-H460 lung): > 100 µM
- TGI (SNB-19 CNS): > 100 µM
- TGI (NCI/ADR-RES ovarian): > 100 µM
- TGI (OVCAR-5 ovarian): > 100 µM
- TGI (MOLT-4 leukemia): > 100 µM
- TGI (SK-MEL-2 melanoma): > 100 µM
- TGI (SNB-75 CNS): > 100 µM
- TGI (NCI-H23 lung): > 100 µM
- TGI (KM12 colon): > 100 µM
- TGI (M14 melanoma): > 100 µM
- TGI (OVCAR-4 ovarian): > 100 µM
- TGI (MDA-MB-435): > 100 µM
- TGI (OVCAR-8 ovarian): > 100 µM
- TGI (NCI-H522 lung): > 100 µM
- TGI (MCF7 breast): > 100 µM
- TGI (786-0 renal): > 100 µM
- TGI (HT29 colon): > 100 µM
- TGI (SK-MEL-5 melanoma): > 100 µM
- TGI (K-562 leukemia): > 100 µM
- TGI (SW-620 colon): > 100 µM
- TGI (RXF 393 renal): > 100 µM
- TGI (UO-31 renal): > 100 µM
- TGI (HOP-92 NSCLC): > 100 µM
- TGI (UACC-257 melanoma): > 100 µM
- TGI (OVCAR-3 ovarian): > 100 µM
- TGI (MDA-N): > 100 µM
- TGI (SK-MEL-28 melanoma): > 100 µM
- TGI (SF-295 CNS): > 100 µM
- TGI (SF-268 CNS): > 100 µM
- TGI (IGROV1 ovarian): > 100 µM
- TGI (A498 renal): > 100 µM
- TGI (HCT-116 colon): > 100 µM
- TGI (BT-549 breast): > 100 µM
- TGI (SK-OV-3 ovarian): > 100 µM
- TGI (DU-145 prostate): > 100 µM
- TGI (HOP-62 NSCLC): > 100 µM
- TGI (EKVX NSCLC): > 100 µM
- TGI (CCRF-CEM leukemia): > 100 µM

Compound: CCOC(=O)/C=C/C1OC(C)(C)OC1/C=C/C(=O)OCC (stereo not drawn)
- TGI (A549 NSCLC): > 100 µM
- TGI (UACC-62 melanoma): > 100 µM
- TGI (TK-10 renal): > 100 µM
- TGI (SF-539 CNS): > 100 µM
- TGI (PC-3 prostate): > 100 µM
- TGI (HS 578T breast): > 100 µM
- TGI (U251 CNS): > 100 µM
- TGI (NCI-H226 lung): > 100 µM
- TGI (MDA-MB-231 breast): > 100 µM
- TGI (ACHN renal): > 100 µM
- TGI (COLO 205 colon): > 100 µM
- TGI (SN12C renal): > 100 µM
- TGI (CAKI-1 renal): 54.7 µM
- TGI (HCC-2998 colon): 47.4 µM
- TGI (HCT-15 colon): 64.2 µM
- TGI (MALME-3M melanoma): > 100 µM
- TGI (SR leukemia): 43.3 µM
- TGI (T-47D breast): > 100 µM
- TGI (NCI-H460 lung): 48.9 µM
- TGI (SNB-19 CNS): > 100 µM
- TGI (NCI/ADR-RES ovarian): > 100 µM
- TGI (OVCAR-5 ovarian): > 100 µM
- TGI (MOLT-4 leukemia): 63.3 µM
- TGI (SK-MEL-2 melanoma): > 100 µM
- TGI (SNB-75 CNS): > 100 µM
- TGI (NCI-H23 lung): > 100 µM
- TGI (KM12 colon): 70.7 µM
- TGI (M14 melanoma): > 100 µM
- TGI (OVCAR-4 ovarian): > 100 µM
- TGI (MDA-MB-435): > 100 µM
- TGI (OVCAR-8 ovarian): 82.7 µM
- TGI (NCI-H522 lung): 51.1 µM
- TGI (MCF7 breast): > 100 µM
- TGI (786-0 renal): > 100 µM
- TGI (HT29 colon): 57.6 µM
- TGI (SK-MEL-5 melanoma): > 100 µM
- TGI (K-562 leukemia): 48.4 µM
- TGI (SW-620 colon): 49.2 µM
- TGI (RXF 393 renal): > 100 µM
- TGI (RPMI-8226 leukemia): 47.7 µM
- TGI (UO-31 renal): > 100 µM
- TGI (LOX IMVI melanoma): > 100 µM
- TGI (HOP-92 NSCLC): 41.8 µM
- TGI (UACC-257 melanoma): > 100 µM
- TGI (MDA-N): > 100 µM
- TGI (SK-MEL-28 melanoma): 87.7 µM
- TGI (SF-295 CNS): > 100 µM
- TGI (SF-268 CNS): > 100 µM
- TGI (IGROV1 ovarian): > 100 µM
- TGI (A498 renal): > 100 µM
- TGI (HCT-116 colon): > 100 µM
- TGI (BT-549 breast): > 100 µM
- TGI (SK-OV-3 ovarian): > 100 µM
- TGI (DU-145 prostate): > 100 µM
- TGI (HOP-62 NSCLC): > 100 µM
- TGI (EKVX NSCLC): 94.9 µM
- TGI (CCRF-CEM leukemia): 57.7 µM
